What was measured:
[1] = biological target: T1, human TRPM8 receptor (Homo sapiens, UniProt Q7Z2W7); assay: Assay for TRPM8 modulators: Ca2+ fluorescence (Fluo-4) in HEK293-TRPM8 test cells; format: cell-based; conditions: HEK293 cells stably transfected with human TRPM8, agonism, triplicates, 0.1-200 μM; read-out: Activity In vitro assay (EC50)
T1 construct: expressed in transfected cells
Excerpt: The test cell system produced, with human TRPM8 DNA, was a stably transfected HEK293 cell line. Preference is given here to HEK293 which, via the plasmid introduced, offers the option of induction of TRPM8 expression by means of tetracycline.
The agonism or antagonism of the receptor can be quantified by means of a Ca^2+-sensitive dye (e.g. FURA, Fluo-4 etc.). Agonists on their own result in an increase in the Ca^2+ signal; antagonists in the presence of menthol, for example, result in a reduction in the Ca^2+ signal (in each case detected by means of the Fluo-4 dye which is caused to have different fluorescence properties by Ca^2+).
First of all, in a manner known per se, a fresh culture of transformed HEK cells is produced in cell culture bottles. The HEK293-TRPM8 test cells are detached from the cell culture bottles by means of trypsin and 40 000 cells/well are sown with 100 μl of medium in 96-hole plates (Greiner #655948 poly-D-lysine-coated). For induction of the TRPM8 receptor, tetracycline is added to the growth medium (DMEM/HG, 10% FCS tetracycline-free, 4 mM L-glutamine, 15 μg/mL blasticidin, 100 μg/mL hygromycin B, 1 μg/mL tetracycline). The next day, the cells are laden with Fluo-4AM dye and the test is conducted.
The test substances are used in the assay in triplicates in concentrations of 0.1-200 μM. Normally, the compounds are kept in DMSO solutions and diluted down for the assay to a maximum DMSO concentration of 2%.

[2] = system: trained panelists; assay: Sensory assessment: cooling intensity of inventive amides in 5% sugar solution compared to FEMA 4809; format: in vivo, human; conditions: scale 1 (very weak) to 9 (very strong), n=10 to 11
Protocol: […] What were assessed here were initial cooling intensity, overall cooling intensity and long-lasting action on a scale from 1 (very weak) to 9 (very strong).

[3] = system: oral cavity of trained panelists; assay: Time-intensity profile of cooling after 40 s mouth rinse with sample solution; format: in vivo, human; conditions: for Cooling intensity: 40 s mouth rinse; for Onset of cooling activity: time-intensity profile, with respect to WS3
Protocol: To establish a time-intensity profile, the oral cavity of trained panelists (n=8 to 11) was rinsed for 40 seconds with a mouthful of a sample solution (2 ppm of FEMA 4809 or 50 ppm of FEMA 4496 or 50 ppm of 1) to 5)). Subsequently, the cooling intensity perceived was assessed at defined time intervals using a scale.

[4] = time 0 sec; 2 ppm FEMA 4809, 50 ppm FEMA 4496, 50 ppm 1) to 5)
[5] = time 40 sec; 2 ppm FEMA 4809, 50 ppm FEMA 4496, 50 ppm 1) to 5)
[6] = time 70 sec; 2 ppm FEMA 4809, 50 ppm FEMA 4496, 50 ppm 1) to 5)
[7] = time 100 sec; 2 ppm FEMA 4809, 50 ppm FEMA 4496, 50 ppm 1) to 5)
[8] = time 130 sec; 2 ppm FEMA 4809, 50 ppm FEMA 4496, 50 ppm 1) to 5)
[9] = time 160 sec; 2 ppm FEMA 4809, 50 ppm FEMA 4496, 50 ppm 1) to 5)
[10] = time 190 sec; 2 ppm FEMA 4809, 50 ppm FEMA 4496, 50 ppm 1) to 5)
[11] = time 220 sec; 2 ppm FEMA 4809, 50 ppm FEMA 4496, 50 ppm 1) to 5)
[12] = time 250 sec; 2 ppm FEMA 4809, 50 ppm FEMA 4496, 50 ppm 1) to 5)
[13] = time 280 sec; 2 ppm FEMA 4809, 50 ppm FEMA 4496, 50 ppm 1) to 5)
[14] = time 310 sec; 2 ppm FEMA 4809, 50 ppm FEMA 4496, 50 ppm 1) to 5)
[15] = time 340 sec; 2 ppm FEMA 4809, 50 ppm FEMA 4496, 50 ppm 1) to 5)
[16] = time 640 sec; 2 ppm FEMA 4809, 50 ppm FEMA 4496, 50 ppm 1) to 5)
[17] = time 940 sec; 2 ppm FEMA 4809, 50 ppm FEMA 4496, 50 ppm 1) to 5)
[18] = time 1240 sec; 2 ppm FEMA 4809, 50 ppm FEMA 4496, 50 ppm 1) to 5)

T1 sequence (Q7Z2W7 whole entry): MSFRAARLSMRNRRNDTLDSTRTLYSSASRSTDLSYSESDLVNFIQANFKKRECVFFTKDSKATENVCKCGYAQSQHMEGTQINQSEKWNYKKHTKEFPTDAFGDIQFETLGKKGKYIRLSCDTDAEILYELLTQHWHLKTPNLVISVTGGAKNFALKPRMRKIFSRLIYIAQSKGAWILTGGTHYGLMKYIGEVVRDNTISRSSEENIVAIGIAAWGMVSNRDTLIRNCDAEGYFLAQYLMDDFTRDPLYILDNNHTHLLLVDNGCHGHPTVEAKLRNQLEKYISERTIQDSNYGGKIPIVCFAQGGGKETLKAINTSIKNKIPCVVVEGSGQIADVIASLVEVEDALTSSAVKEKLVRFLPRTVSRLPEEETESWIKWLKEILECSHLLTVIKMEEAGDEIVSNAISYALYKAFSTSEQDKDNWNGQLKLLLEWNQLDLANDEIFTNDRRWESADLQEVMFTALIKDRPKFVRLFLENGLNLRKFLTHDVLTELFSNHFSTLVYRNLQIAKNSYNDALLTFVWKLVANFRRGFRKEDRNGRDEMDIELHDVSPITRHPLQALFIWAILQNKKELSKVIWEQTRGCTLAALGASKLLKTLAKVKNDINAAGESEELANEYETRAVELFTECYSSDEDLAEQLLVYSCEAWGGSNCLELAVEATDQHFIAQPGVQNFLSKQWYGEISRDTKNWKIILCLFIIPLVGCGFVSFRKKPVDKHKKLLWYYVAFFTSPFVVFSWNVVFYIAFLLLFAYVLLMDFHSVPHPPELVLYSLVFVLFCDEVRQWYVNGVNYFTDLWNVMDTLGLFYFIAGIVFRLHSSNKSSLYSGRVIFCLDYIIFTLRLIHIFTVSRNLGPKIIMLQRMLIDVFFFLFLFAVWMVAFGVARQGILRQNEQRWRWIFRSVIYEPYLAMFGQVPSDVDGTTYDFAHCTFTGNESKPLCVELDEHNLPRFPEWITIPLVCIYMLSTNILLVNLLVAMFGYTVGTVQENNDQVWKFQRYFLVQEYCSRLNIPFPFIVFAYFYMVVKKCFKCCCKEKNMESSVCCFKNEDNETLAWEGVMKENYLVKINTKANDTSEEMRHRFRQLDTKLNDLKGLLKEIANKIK

SMILES: O=C(/C=C/c1ccc2c(c1)OCO2)N(CC1CCCS1)c1cc[nH]n1 (stereo not shown) [(E)-3-(1,3-benzodioxol-5-yl)-N-(1H-pyrazol-3-yl)-N-(tetrahydrothiophen-2-ylmethyl)prop-2-enamide]
- EC50 [1]: 5 µM

SMILES: Cc1ccc(OCC(=O)N(c2ccsc2)C2CCCCC2)cc1 [N-cyclohexyl-2-(4-methylphenoxy)-N-(3-thienyl)acetamide]
- EC50 [1]: 30 µM

SMILES: COc1ccc(/C=C/C(=O)N(c2ccccc2)C2CCOC2)cc1 (stereo not shown) [(E)-3-(4-methoxyphenyl)-N-phenyl-N-tetrahydrofuran-3-yl-prop-2-enamide]
- EC50 [1]: 12.5 µM

SMILES: COc1ccc(/C=C/C(=O)N(CC2CCCO2)c2ccccc2)cc1 (stereo not shown) [(E)-3-(4-methoxyphenyl)-N-phenyl-N-(tetrahydrofuran-2-ylmethyl)prop-2-enamide]
- EC50 [1]: 25 µM

SMILES: Cc1ccc(OCC(=O)N(c2ccccc2)C2CCOC2)cc1 (stereo not shown) [2-(4-methylphenoxy)-N-phenyl-N-tetrahydrofuran-3-yl-acetamide]
- EC50 [1]: 25 µM

SMILES: CSCCN(C(=O)/C=C/c1ccc2c(c1)OCO2)c1ccccn1 [(E)-3-(1,3-benzodioxol-5-yl)-N-(2-methylsulfanylethyl)-N-(2-pyridyl)prop-2-enamide]
- Initial cooling effect ([2]; 2 ppm in 5% sugar solution): 3.4
- Long-lasting action ([2]; 2 ppm in 5% sugar solution): 4.3
- Overall cooling intensity ([2]; 2 ppm in 5% sugar solution): 4.6
- Initial cooling effect ([2]; 20 ppm in 5% sugar solution): 6.2
- Long-lasting action ([2]; 20 ppm in 5% sugar solution): 7.5
- Overall cooling intensity ([2]; 20 ppm in 5% sugar solution): 7.8

SMILES: Cc1ccc(OCC(=O)N(c2ccccc2)C2CCSC2)cc1 (stereo not shown) [2-(4-methylphenoxy)-N-phenyl-N-tetrahydrothiophen-3-yl-acetamide]
- EC50 [1]: 12.5 µM

SMILES: CCNC(=O)C1CC(C)CCC1C(C)C (stereo not shown) [WS3, N-ethylmenthane-3-carboxamide]
- Cooling intensity [3, 4]: 0
- Cooling intensity [3, 5]: 4.3
- Cooling intensity [3, 6]: 4.3
- Cooling intensity [3, 7]: 4.1
- Cooling intensity [3, 8]: 3.7
- Cooling intensity [3, 9]: 3.4
- Cooling intensity [3, 10]: 3.1
- Cooling intensity [3, 11]: 2.9
- Cooling intensity [3, 12]: 2.8
- Cooling intensity [3, 13]: 2.4
- Cooling intensity [3, 14]: 2.3
- Cooling intensity [3, 15]: 2.1
- Cooling intensity [3, 16]: 1.2
- Cooling intensity [3, 17]: 0.5
- Cooling intensity [3, 18]: 0.3

SMILES: Cc1ccc(/C=C/C(=O)N(CC2CCCO2)c2ccccc2)cc1 (stereo not shown) [(E)-N-phenyl-3-(p-tolyl)-N-(tetrahydrofuran-2-ylmethyl)prop-2-enamide]
- EC50 [1]: 5 µM

SMILES: COc1ccc(OCC(=O)N(c2cc[nH]n2)C2CCSC2)cc1 (stereo not shown) [2-(4-methoxyphenoxy)-N-(1H-pyrazol-3-yl)-N-tetrahydrothiophen-3-yl-acetamide]
- EC50 [1]: 10 µM

SMILES: O=C(/C=C/c1ccc2c(c1)OCO2)N(CC1CCCO1)c1cc[nH]n1 (stereo not shown) [(E)-3-(1,3-benzodioxol-5-yl)-N-(1H-pyrazol-3-yl)-N-(tetrahydrofuran-2-ylmethyl)prop-2-enamide]
- EC50 [1]: 15 µM

SMILES: CCN(CCCSC)C(=O)/C=C/c1ccc2c(c1)OCO2 [(E)-3-(1,3-benzodioxol-5-yl)-N-ethyl-N-(3-methylsulfanylpropyl)prop-2-enamide]
- EC50 [1]: 30 µM

SMILES: Cc1ccc(OCC(=O)N(CC2CCCO2)c2cc[nH]n2)cc1 (stereo not shown) [2-(4-methylphenoxy)-N-(1H-pyrazol-3-yl)-N-(tetrahydrofuran-2-ylmethyl)acetamide]
- EC50 [1]: 10 µM

SMILES: Cc1ccc(OCC(=O)N(Cc2cccs2)c2ccn[nH]2)cc1 [FEMA 4809]
- Initial cooling effect ([2]; 2 ppm in 5% sugar solution): 3.9
- Long-lasting action ([2]; 2 ppm in 5% sugar solution): 7.5
- Overall cooling intensity ([2]; 2 ppm in 5% sugar solution): 7.3
- Cooling intensity [3, 4]: 0
- Cooling intensity [3, 5]: 2.7
- Cooling intensity [3, 6]: 2.8
- Cooling intensity [3, 7]: 2.5
- Cooling intensity [3, 8]: 2.6
- Cooling intensity [3, 9]: 2.6
- Cooling intensity [3, 10]: 2.7
- Cooling intensity [3, 11]: 2.8
- Cooling intensity [3, 12]: 2.7
- Cooling intensity [3, 13]: 2.8
- Cooling intensity [3, 14]: 2.9
- Cooling intensity [3, 15]: 2.8
- Cooling intensity [3, 16]: 2.6
- Cooling intensity [3, 17]: 2.6
- Cooling intensity [3, 18]: 2.1
- Onset of cooling activity [3]: distinctly retarded onset of the cooling action

SMILES: Cc1ccc(/C=C/C(=O)N(c2ccccn2)C2CCSC2)cc1 (stereo not shown) [3), (E)-3-(p-tolyl)-N-(2-pyridyl)-N-tetrahydrothiophen-3-ylprop-2-enamide]
- Cooling intensity [3, 4]: 0.0
- Cooling intensity [3, 5]: 4.0
- Cooling intensity [3, 6]: 4.0
- Cooling intensity [3, 7]: 4.0
- Cooling intensity [3, 8]: 3.9
- Cooling intensity [3, 9]: 3.7
- Cooling intensity [3, 10]: 3.7
- Cooling intensity [3, 11]: 3.5
- Cooling intensity [3, 12]: 3.4
- Cooling intensity [3, 13]: 3.3
- Cooling intensity [3, 14]: 3.2
- Cooling intensity [3, 15]: 3.2
- Cooling intensity [3, 16]: 2.2
- Cooling intensity [3, 17]: 1.3
- Cooling intensity [3, 18]: 0.7

SMILES: CSCCN(C(=O)/C=C/c1ccc(C)cc1)c1ccccn1 [(E)-N-(2-methylsulfanylethyl)-3-(p-tolyl)-N-(2-pyridyl)prop-2-enamide]
- Initial cooling effect ([2]; 20 ppm in 5% sugar solution): 4
- Long-lasting action ([2]; 20 ppm in 5% sugar solution): 5.3
- Overall cooling intensity ([2]; 20 ppm in 5% sugar solution): 5.7

SMILES: Cc1ccc(/C=C/C(=O)N(c2ccccc2)C2CCOC2)cc1 (stereo not shown) [(E)-N-phenyl-3-(p-tolyl)-N-tetrahydrofuran-3-ylprop-2-enamide]
- Initial cooling effect ([2]; 20 ppm in 5% sugar solution): 4.3
- Long-lasting action ([2]; 20 ppm in 5% sugar solution): 6.1
- Overall cooling intensity ([2]; 20 ppm in 5% sugar solution): 5.7

SMILES: CSCCN(C(=O)/C=C/c1ccc2c(c1)OCO2)c1ccccn1 [5), (E)-3-(1,3-benzodioxol-5-yl)-N-(2-methylsulfanylethyl)-N-(2-pyridyl)prop-2-enamide]
- Cooling intensity [3, 4]: 0.0
- Cooling intensity [3, 5]: 5.7
- Cooling intensity [3, 6]: 6.2
- Cooling intensity [3, 7]: 6.0
- Cooling intensity [3, 8]: 5.6
- Cooling intensity [3, 9]: 5.6
- Cooling intensity [3, 10]: 5.2
- Cooling intensity [3, 11]: 5.0
- Cooling intensity [3, 12]: 4.9
- Cooling intensity [3, 13]: 4.6
- Cooling intensity [3, 14]: 4.5
- Cooling intensity [3, 15]: 4.3
- Cooling intensity [3, 16]: 3.1
- Cooling intensity [3, 17]: 1.9
- Cooling intensity [3, 18]: 1.1

SMILES: CC1CCC(C(C)C)C(C(=O)Nc2ccc(CC#N)cc2)C1 (stereo not shown) [FEMA 4496]
- Cooling intensity [3, 4]: 0
- Cooling intensity [3, 5]: 1.9
- Cooling intensity [3, 6]: 2.3
- Cooling intensity [3, 7]: 2.4
- Cooling intensity [3, 8]: 2.3
- Cooling intensity [3, 9]: 2.3
- Cooling intensity [3, 10]: 2.3
- Cooling intensity [3, 11]: 2.2
- Cooling intensity [3, 12]: 2.2
- Cooling intensity [3, 13]: 2.2
- Cooling intensity [3, 14]: 2.1
- Cooling intensity [3, 15]: 2.1
- Cooling intensity [3, 16]: 2.0
- Cooling intensity [3, 17]: 1.5
- Cooling intensity [3, 18]: 1.2
- Onset of cooling activity [3]: distinctly retarded onset of the cooling action

SMILES: CSCCN(C(=O)/C=C/c1ccc2c(c1)OCO2)c1ccccc1 [(E)-3-(1,3-benzodioxol-5-yl)-N-(2-methylsulfanylethyl)-N-phenyl-prop-2-enamide]
- Initial cooling effect ([2]; 20 ppm in 5% sugar solution): 2.7
- Long-lasting action ([2]; 20 ppm in 5% sugar solution): 4.7
- Overall cooling intensity ([2]; 20 ppm in 5% sugar solution): 4.7

SMILES: CSCCN(C(=O)/C=C/c1ccc2c(c1)OCO2)c1cc[nH]n1 [(E)-3-(1,3-benzodioxol-5-yl)-N-(2-methylsulfanylethyl)-N-(1H-pyrazol-3-yl)prop-2-enamide]
- Initial cooling effect ([2]; 5 ppm in 5% sugar solution): 3.1
- Long-lasting action ([2]; 5 ppm in 5% sugar solution): 4.6
- Overall cooling intensity ([2]; 5 ppm in 5% sugar solution): 4.8
- Initial cooling effect ([2]; 20 ppm in 5% sugar solution): 3.7
- Long-lasting action ([2]; 20 ppm in 5% sugar solution): 6.6
- Overall cooling intensity ([2]; 20 ppm in 5% sugar solution): 6.6
